The text below walks through data of patent US10717720B2, “Modified compound of andrographolide” (Heilongjiang Zhenbaodao Pharmaceutical Co., Ltd., priority 2015, dated 2020).

The inhibition is the percentage by which the read-out fell short of the control.

Bounds are passed on as bounds.

For this assay, the system named is LPS-induced IL-6 release level from THP-1 cells. Put plainly: Test of IL-6 release from THP-1 cells (LPS-induced, IL-6 in supernatant detected by CBA). The class given is cell-based. The note with it: Homo sapiens; inflammatory factor IL-6 detected by CBA; compound 10 uM; LPS-stimulated THP-1 cells, supernatant after 24 hours; read-out: Inhibition rate @ 10 uM. In short, it runs like this:
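THP-1 cells were treated with compound at final 30, 10, 3 and 1 uM, with dexamethasone 100 nM as reference, then stimulated with LPS. The LPS working solution was 800 ng/ml. After 24 h at 37 °C, IL-6 in the supernatant was measured by CBA.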
Regarding `C=C1CCC2[C@]3(C)CO[C@@H](C4CCCC4)O[C@@H]3CC[C@@]2(C)[C@@H]1CCN1CCCC1C(=O)O` (stereo partly drawn) [Compound 163, 1-(2-((3R,4aR,6aS,7R,10bR)-3-cyclopentyl-6a,10b-dimethyl-8-methylenedecahydro-1H-naphtho[2,1-d][1,3]dioxin-7-yl)ethyl)pyrrolidine-2-carboxylic acid], the inhibition at 10 µM was more than 60%.

For `C=C1CCC2[C@]3(C)CO[C@@H](C4CCCC4)O[C@@H]3CC[C@@]2(C)[C@@H]1CCOc1ccn(C)c(=O)c1` (stereo partly drawn) [Compound 357, 4-(2-((3R,4aR,6aS,7R,10bR)-3-cyclopentyl-6a,10b-dimethyl-8-dihydromethylenedecahydro-1H-naphtho[2,1-d][1,3]dioxin-7-yl)ethoxy)-1-methylpyridin-2(1H)-one], the inhibition at 10 µM is more than 60%.

In the case of `C=C1CCC2[C@]3(C)CO[C@@H](C4CCCC4)O[C@@H]3CC[C@@]2(C)[C@@H]1CCN1CCC(N2CCCC2)CC1` (stereo partly drawn) [Compound 160, 1-(2-((3R,4aR,6aS,7R,10bR)-3-cyclopentyl-6a,10b-dimethyl-8-methylene-decahydro-1H-naphtho[2,1-d][1,3]dioxin-7-yl)ethyl)-4-(pyrrolidin-1-yl)piperidine], the inhibition at 10 µM is more than 60%.

For `C=C1CCC2[C@]3(C)CO[C@@H](C4CCCC4)O[C@@H]3CC[C@@]2(C)[C@@H]1CCN1CCC[C@@H]1C(=O)O` (some centres unmarked) [Compound 450], the inhibition at 10 µM is more than 60%.

On to `C=C1CCC2[C@]3(C)CO[C@@H](C4CCCC4)O[C@@H]3CC[C@@]2(C)[C@@H]1CCOC1CCN(C(C)(C)C(=O)O)CC1` (some centres unmarked) [Compound 463], for which the inhibition at 10 µM was more than 60%.

With `C=C1CCC2[C@]3(C)CO[C@@H](C4CCCC4)O[C@@H]3CC[C@@]2(C)[C@@H]1CCN1CCCC[C@@H]1C(=O)O` (stereo partly drawn) [Compound 451, (2R)-1-(2-((3R,4aR,6aS,7R,10bR)-3-cyclopentyl-6a,10b-dimethyl-8-methylene-decahydro-1H-naphtho[2,1-d][1,3]dioxin-7-yl)ethyl)piperidine-2-carboxylic acid], the inhibition at 10 µM lay within 30 to 60%.

Take `C=C1CCC2[C@]3(C)CO[C@@H](C4CCCCC4)O[C@@H]3CC[C@@]2(C)[C@@H]1CCOc1ccncc1` (stereo partly drawn) [Compound 429, 4-(2-((3R,4aR,6aS,7R,10bR)-3-cyclohexyl-6a,10b-dimethyl-8-dihydromethylenedecahydro-1H-naphtho[2,1-d][1,3]dioxin-7-yl)ethoxy)pyridine]: the inhibition at 10 µM was less than 30%.

Turning to `C=C1CCC2[C@]3(C)CO[C@@H](C4CCCC4)O[C@@H]3CC[C@@]2(C)[C@@H]1CCOc1cncc(O)c1` (stereo partly drawn) [Compound 443, 5-(2-((3R,4aR,6aS,7R,10bR)-3-cyclopentyl-6a,10b-dimethyl-8-dihydromethylenedecahydro-1H-naphtho[2,1-d][1,3]dioxin-7-yl)ethoxy)-pyridin-3-ol], the inhibition at 10 µM was in the range of 30 to 60%.

Regarding `C=C1CCC2[C@]3(C)CO[C@@H](C4CCCC4)O[C@@H]3CC[C@@]2(C)[C@@H]1CCN1CCOC1=O` (stereo partly drawn) [Compound 196, 3-(2-((3R,4aR,6aS,7R,10bR)-3-cyclopentyl-6a,10b-dimethyl-8-decahydromethylene-1H-naphtho[2,1-d][1,3]dioxin-7-yl)ethyl)oxazolidin-2-one], the inhibition at 10 µM lay within 30 to 60%.

For the molecule `C=C1CCC2[C@]3(C)CO[C@@H](C4CCC4)O[C@@H]3CC[C@@]2(C)[C@@H]1CCOc1ccncc1` (stereo partly drawn) [Compound 412, 4-(2-((3R,4aR,6aS,7R,10bR)-3-cyclobutyl-6a,10b-dimethyl-8-dihydromethylenedecahydro-1H-naphtho[2,1-d][1,3]dioxin-7-yl)ethoxy)pyridine], the inhibition at 10 µM is more than 60%.

With `C=C1CCC2[C@]3(C)CO[C@@H](C4CCCC4)O[C@@H]3CC[C@@]2(C)[C@@H]1CCOc1cccnc1` (stereo partly drawn) [Compound 310, 3-(2-((3R,4aR,6aS,7R,10bR)-3-cyclopentyl-6a,10b-dimethyl-8-dihydromethylenedecahydro-1H-naphtho[2,1-d][1,3]dioxin-7-yl)ethoxy)-pyridine], the inhibition at 10 µM was more than 60%.
